Earlier results in patent US20180125772A1, “Oral Care Compositions” (Colgate-Palmolive Company, priority 2016, published 2018).

Details: aqueous solution, pH of no net charge

Compound: NCCCC[C@H](N)C(=O)O [lysine]
- isoelectric point: 9.7 pH
